Experimental data published in US20250064789A1, “KETOAMIDE DERIVATIVES AND PHARMACEUTICAL USES THEREOF” (priority 2022, published 2025).
Where two headings read alike, the source gives them in different places.

Target: recombinant SARS-CoV-2 M^pro (Severe acute respiratory syndrome coronavirus 2 (2019-nCoV) (SARS-CoV-2), UniProt P0DTD1)
Experiment: Inhibition of SARS-CoV-2 M^pro enzyme activity (fluorescent substrate assay)
Type: biochemical
Settings: inhibition of SARS-CoV-2 M^pro enzyme activity, read-out: IC50

Compound: C[C@@H](NC(=O)c1cnccn1)C(=O)N[C@H](Cc1ccccc1)C(=O)C(=O)NCc1ccccn1 [Compound 106]
- IC50 (values in nM): 161 ± 4.1 nM

Compound: C[C@@H](NC(=O)C1(O)CCCCC1)C(=O)N[C@H](Cc1ccccc1)C(=O)C(=O)NCc1ccccn1 [Compound 107]
- IC50 (values in nM): 52 ± 0.2 nM

Compound: C[C@@H](NC(=O)c1ccnc(F)c1)C(=O)N[C@H](Cc1ccccc1)C(=O)C(=O)NCc1ccccn1 [Compound 108]
- IC50 (values in nM): 66.4 ± 1.2 nM

Compound: C[C@@H](NC(=O)/C=C/c1ccc(F)cc1)C(=O)N[C@H](Cc1ccccc1)C(=O)C(=O)NCc1ccccn1 [Compound 109]
- IC50 (values in nM): 168.9 ± 0.1 nM

Compound: C[C@@H](NC(=O)C1CCC(C(F)(F)F)CC1)C(=O)N[C@H](Cc1ccccc1)C(=O)C(=O)NCc1ccccn1 (stereo partly drawn) [Compound 110]
- IC50 (values in nM): 31.3 ± 0.1 nM

Compound: C[C@@H](NC(=O)CC1CCC(F)(F)CC1)C(=O)N[C@H](Cc1ccccc1)C(=O)C(=O)NCc1ccccn1 [Compound 111]
- IC50 (values in nM): 25.3 ± 0.2 nM

Compound: C[C@@H](NC(=O)COc1cccnc1)C(=O)N[C@H](Cc1ccccc1)C(=O)C(=O)NCc1ccccn1 [Compound 112]
- IC50 (values in nM): 112.6 ± 0.5 nM

Compound: C[C@@H](NC(=O)[C@@H](NC(=O)NC1(CS(=O)(=O)C(C)(C)C)CCCCC1)C(C)(C)C)C(=O)N[C@H](Cc1ccccc1)C(=O)C(=O)NCc1ccccn1 [Compound 113]
- IC50 (values in nM): 69.1 ± 8.1 nM

Compound: C[C@@H](NC(=O)COC1CCCCC1)C(=O)N[C@H](Cc1ccccc1)C(=O)C(=O)NCc1ccccn1 [Compound 114]
- IC50 (values in nM): 34.9 ± 1 nM

Compound: C[C@@H](NC(=O)COc1cccc(C#N)c1)C(=O)N[C@H](Cc1ccccc1)C(=O)C(=O)NCc1ccccn1 [Compound 115]
- IC50 (values in nM): 37.8 ± 3 nM

Compound: C[C@@H](NC(=O)C1CCS(=O)(=O)CC1)C(=O)N[C@H](Cc1ccccc1)C(=O)C(=O)NCc1ccccn1 [Compound 116]
- IC50 (values in nM): 130.1 ± 0.4 nM

Compound: C[C@@H](NC(=O)[C@H]1CC[C@H](C#N)CC1)C(=O)N[C@H](Cc1ccccc1)C(=O)C(=O)NCc1ccccn1 [Compound 117]
- IC50 (values in nM): 46.1 ± 0.3 nM

Compound: C[C@@H](NC(=O)C1C2CCCC2CN1C(=O)OC(C)(C)C)C(=O)N[C@H](Cc1ccccc1)C(=O)C(=O)NCc1ccccn1 (stereo partly drawn) [Compound 118]
- IC50 (values in nM): 40.2 ± 3.4 nM

Compound: C[C@H](C(=O)N[C@H](Cc1ccccc1)C(=O)C(=O)NCc1ccccn1)N(C)C(=O)C1CCC(F)(F)CC1 [Compound 119]
- IC50 (values in nM): 16.5 ± 1.5 nM

Compound: C[C@@H](NC(=O)C1CCC(F)(F)CC1)C(=O)N[C@H](Cc1ccccc1)C(=O)C(=O)NCc1ccc(Cl)cn1 [Compound 120]
- IC50 (values in nM): 113.3 ± 1 nM

Compound: C[C@@H](NC(=O)C1CCC(F)(F)C1)C(=O)N[C@H](Cc1ccccc1)C(=O)C(=O)NCc1ccccn1 (stereo partly drawn) [Compound 121]
- IC50 (values in nM): 50.7 ± 0.4 nM

Compound: C[C@@H](NC(=O)[C@H]1CC(=O)N([C@@H](C)c2ccccc2)C1)C(=O)N[C@H](Cc1ccccc1)C(=O)C(=O)NCc1ccccn1 [Compound 122]
- IC50 (values in nM): 280.9 ± 2.3 nM

Compound: CC[C@@H](C(=O)N[C@H](C)C(=O)N[C@H](Cc1ccccc1)C(=O)C(=O)NCc1ccccn1)N1CCCC1=O [Compound 123]
- IC50 (values in nM): 163 ± 2 nM

Compound: C[C@H](c1ccccc1)N1C[C@H](C(=O)N[C@H](C)C(=O)N[C@H](Cc2ccccc2)C(=O)C(=O)NCc2ccccn2)CC1=O [Compound 124]
- IC50 (values in nM): 45.1 ± 0.6 nM

Compound: C[C@@H](NC(=O)CC1CCC(F)(F)CC1)C(=O)N[C@H](Cc1ccccc1)C(=O)C(=O)NCc1ccccn1 [Compound 125]
- IC50 (values in nM): 19.7 ± 1.2 nM

Compound: C[C@@H](NC(=O)[C@H]1CC[C@@H](F)CC1)C(=O)N[C@H](Cc1ccccc1)C(=O)C(=O)NCc1ccccn1 [Compound 127]
- IC50 (values in nM): 40.8 ± 0.6 nM

Compound: C[C@@H](NC(=O)C1(F)CCCCC1)C(=O)N[C@H](Cc1ccccc1)C(=O)C(=O)NCc1ccccn1 [Compound 128]
- IC50 (values in nM): 9.4 ± 1.3 nM

Compound: CC(C(=O)N[C@H](C)C(=O)N[C@H](Cc1ccccc1)C(=O)C(=O)NCc1ccccn1)C1CCCCC1 (stereo partly drawn) [Compound 130]
- IC50 (values in nM): 98.6 ± 6.8 nM

Compound: C[C@@H](NC(=O)CC1CCS(=O)(=O)CC1)C(=O)N[C@H](Cc1ccccc1)C(=O)C(=O)NCc1ccccn1 [Compound 131]
- IC50 (values in nM): 36.8 ± 0.1 nM

Compound: C[C@@H](NC(=O)c1cnn(-c2ccccc2)c1)C(=O)N[C@H](Cc1ccccc1)C(=O)C(=O)NCc1ccccn1 [Compound 132]
- IC50 (values in nM): 158 ± 26.2 nM

Compound: C[C@@H](NC(=O)[C@H]1CC[C@@H](NC(=O)OC(C)(C)C)CC1)C(=O)N[C@H](Cc1ccccc1)C(=O)C(=O)NCc1ccccn1 [Compound 133]
- IC50 (values in nM): 198 ± 9.6 nM

Compound: C[C@@H](NC(=O)CC1CC(F)(F)C1)C(=O)N[C@H](Cc1ccccc1)C(=O)C(=O)NCc1ccccn1 [Compound 134]
- IC50 (values in nM): 24.5 nM

Compound: C[C@@H](NC(=O)CC1CCOCC1)C(=O)N[C@H](Cc1ccccc1)C(=O)C(=O)NCc1ccccn1 [Compound 135]
- IC50 (values in nM): 57.3 ± 5.3 nM

Compound: C[C@@H](NC(=O)CC1CCOC(C)(C)C1)C(=O)N[C@H](Cc1ccccc1)C(=O)C(=O)NCc1ccccn1 (stereo partly drawn) [Compound 136]
- IC50 (values in nM): 96.5 ± 2.2 nM

Compound: C[C@@H](NC(=O)c1ccccc1)C(=O)N[C@H](Cc1ccccc1)C(=O)C(=O)NCc1ccccn1 [Compound 137, N—((R)-1-(((R)-3,4-dioxo-1-phenyl-4-((pyridin-2-ylmethyl)amino)butan-2-yl)amino)-1-oxopropan-2-yl)benzamide]
- IC50 (values in nM): 22.1 ± 7.7 nM

Compound: C[C@@H](NC(=O)c1ccccc1F)C(=O)N[C@H](Cc1ccccc1)C(=O)C(=O)NCc1ccccn1 [Compound 138]
- IC50 (values in nM): 48.6 ± 0.4 nM

Compound: C[C@@H](NC(=O)c1cccc(F)c1)C(=O)N[C@H](Cc1ccccc1)C(=O)C(=O)NCc1ccccn1 [Compound 139]
- IC50 (values in nM): 24.3 ± 2.3 nM

Compound: C[C@@H](NC(=O)c1ccc(F)cc1)C(=O)N[C@H](Cc1ccccc1)C(=O)C(=O)NCc1ccccn1 [Compound 140]
- IC50 (values in nM): 15.5 ± 1 nM

Compound: C[C@@H](NC(=O)c1ccccn1)C(=O)N[C@H](Cc1ccccc1)C(=O)C(=O)NCc1ccccn1 [Compound 141]
- IC50 (values given in μM): 1160 ± 240 nM

Compound: C[C@@H](NC(=O)c1cccnc1)C(=O)N[C@H](Cc1ccccc1)C(=O)C(=O)NCc1ccccn1 [Compound 142]
- IC50 (values given in μM): 1210 ± 890 nM

Compound: C[C@@H](NC(=O)c1cccc(OC(F)(F)F)c1)C(=O)N[C@H](Cc1ccccc1)C(=O)C(=O)NCc1ccccn1 [Compound 143]
- IC50 (values in nM): 16.4 ± 1.5 nM

Compound: C[C@@H](NC(=O)c1ccc(Cl)cc1)C(=O)N[C@H](Cc1ccccc1)C(=O)C(=O)NCc1ccccn1 [Compound 144]
- IC50 (values in nM): 19 ± 0.3 nM

Compound: C[C@@H](NC(=O)C1CCCCC1)C(=O)N[C@H](Cc1ccccc1)C(=O)C(=O)NCc1ccccn1 [Compound 146]
- IC50 (values in nM): 12.3 ± 0.2 nM

Compound: C[C@@H](NC(=O)C1CCC(C(F)(F)F)CC1)C(=O)N[C@H](Cc1ccccc1)C(=O)C(=O)NCc1ccccn1 (stereo partly drawn) [Compound 147]
- IC50 (values in nM): 13 ± 0.7 nM

Compound: C[C@@H](NC(=O)COc1ccc(F)cc1)C(=O)N[C@H](Cc1ccccc1)C(=O)C(=O)NCc1ccccn1 [Compound 148]
- IC50 (values in nM): 11.7 ± 2.4 nM

Compound: C[C@H](C(=O)N[C@H](Cc1ccccc1)C(=O)C(=O)NCc1ccccn1)N(C)C(=O)c1ccc(F)cc1 [Compound 149]
- IC50 (values in nM): 36.4 ± 7.4 nM

Compound: O=C(CNC(=O)[C@@H]1C[C@@H]2[C@H](C1)C2(F)F)N[C@H](Cc1ccccc1)C(=O)C(=O)NCc1ccccn1 [Compound 152]
- IC50 (values in nM): 18.7 ± 0.6 nM

Compound: O=C(CNC(=O)c1cnccn1)N[C@H](Cc1ccccc1)C(=O)C(=O)NCc1ccccn1 [Compound 154]
- IC50 (values in nM): 193 ± 2 nM

Compound: CN(CC(=O)N[C@H](Cc1ccccc1)C(=O)C(=O)NCc1ccccn1)C(=O)C1CCC(F)(F)CC1 [Compound 156]
- IC50 (values in nM): 33.4 ± 0.9 nM

Compound: O=C(CCC1CCC(F)(F)CC1)NC1(C(=O)N[C@H](Cc2ccccc2)C(=O)C(=O)NCc2ccccn2)CC1 [Compound 157]
- IC50 (values in nM): 12.5 ± 0.5 nM

Compound: O=C(NCc1ccccn1)C(=O)[C@@H](Cc1ccccc1)NC(=O)C1(NC(=O)c2cnccn2)CC1 [Compound 158]
- IC50 (values in nM): 252 ± 9 nM

Compound: O=C(NCc1ccccn1)C(=O)[C@@H](Cc1ccccc1)NC(=O)C1(NC(=O)C2CCC(F)(F)CC2)CC1 [Compound 159]
- IC50 (values in nM): 21.5 ± 5.7 nM

Compound: O=C(CC1CCC(F)(F)CC1)NC1(C(=O)N[C@H](Cc2ccccc2)C(=O)C(=O)NCc2ccccn2)CC1 [Compound 160]
- IC50 (values in nM): 13.5 ± 3.5 nM

Compound: O=C(NCc1ccccn1)C(=O)[C@@H](Cc1ccccc1)NC(=O)C1(NC(=O)[C@@H]2C[C@@H]3[C@H](C2)C3(F)F)CC1 [Compound 161]
- IC50 (values in nM): 15.3 ± 1.6 nM

Compound: O=C(NCc1ccccn1)C(=O)[C@@H](Cc1ccccc1)NC(=O)C1(NC(=O)[C@H]2CC[C@@H](F)CC2)CC1 [Compound 162]
- IC50 (values in nM): 17.5 ± 0.8 nM

Compound: O=C(NCc1ccccn1)C(=O)[C@@H](Cc1ccccc1)NC(=O)C1(NC(=O)c2cc(Br)cc(OC(F)(F)F)c2)CC1 [Compound 163]
- IC50 (values in nM): 20.8 ± 0.7 nM

Compound: O=C(Cc1cc(OC(F)(F)F)ccc1F)NC1(C(=O)N[C@H](Cc2ccccc2)C(=O)C(=O)NCc2ccccn2)CC1 [Compound 164]
- IC50 (values in nM): 13.2 ± 0.5 nM

Compound: O=C(NCc1ccccn1)C(=O)[C@@H](Cc1ccccc1)NC(=O)C1(NC(=O)c2cc(OC(F)(F)F)ccc2F)CC1 [Compound 165]
- IC50 (values in nM): 20.3 ± 0.2 nM

Compound: O=C(NCc1ccccn1)C(=O)[C@@H](Cc1ccccc1)NC(=O)C1(NC(=O)C2CC23CCC(F)(F)CC3)CC1 (stereo partly drawn) [Compound 166]
- IC50 (values in nM): 23.3 ± 0.8 nM

Compound: CN(C(=O)C1CCC(F)(F)CC1)C1(C(=O)N[C@H](Cc2ccccc2)C(=O)C(=O)NCc2ccccn2)CC1 [Compound 167]
- IC50 (values given in μM): 3810 ± 170 nM

Compound: O=C(NCc1ccccn1)C(=O)[C@@H](Cc1ccccc1)NC(=O)C1(NC(=O)C2(F)CCCCC2)CC1 [Compound 168]
- IC50 (values in nM): 10.7 ± 0.4 nM

Compound: O=C(NCc1ccccn1)C(=O)[C@@H](Cc1ccccc1)NC(=O)C1(NC(=O)C2CCC(F)(F)CC2)CC1 [Compound 169]
- IC50 (values in nM): 22.6 ± 3.7 nM

Compound: O=C(NCc1ccccn1)C(=O)[C@@H](Cc1ccccc1)NC(=O)C1(NC(=O)c2ccc(F)cc2)CC1 [Compound 170]
- IC50 (values in nM): 19.4 ± 0.7 nM

Compound: CC(C)(NC(=O)CCC1CCC(F)(F)CC1)C(=O)N[C@H](Cc1ccccc1)C(=O)C(=O)NCc1ccccn1 [Compound 171]
- IC50 (values in nM): 8.9 ± 0.4 nM

Compound: CC(C)(NC(=O)CC1CCC(F)(F)CC1)C(=O)N[C@H](Cc1ccccc1)C(=O)C(=O)NCc1ccccn1 [Compound 173]
- IC50 (values in nM): 10.3 ± 0.1 nM

Compound: CC(C)(NC(=O)[C@H]1CC[C@@H](F)CC1)C(=O)N[C@H](Cc1ccccc1)C(=O)C(=O)NCc1ccccn1 [Compound 175]
- IC50 (values in nM): 47.3 ± 2.8 nM

Compound: CC(C)(NC(=O)C1CC12CCC(F)(F)CC2)C(=O)N[C@H](Cc1ccccc1)C(=O)C(=O)NCc1ccccn1 (stereo partly drawn) [Compound 176]
- IC50 (values in nM): 15.9 nM

Compound: CC(C)(NC(=O)[C@@H](NC(=O)c1cnccn1)C1CCCCC1)C(=O)N[C@H](Cc1ccccc1)C(=O)C(=O)NCc1ccccn1 [Compound 178]
- IC50 (values in nM): 17.5 ± 0.5 nM
